Laboratory results: patent USRE48097E1, “Cephem compounds, their production and use” (priority 2015, dated 2020)
Converted amounts (≈) assume the structure as drawn. Where two headings read alike, the source gives them in different places.

How the values were obtained:
[1] = tested on: E. coli 4080; assay: MIC against E. coli 4080; type: cell-based; settings: Table 2, E. coli 4080, TEM-10
Text: (§1) Without limitation, the present cephem compounds alone, or in combination with one or more β-lactamase inhibitors, may provide improved antibacterial efficacy, particularly in antibiotic-resistant bacterial strains. It is believed that the present compounds may be structurally different from known compounds and, as a result, may be more basic in nature. It is an advantage that the present compounds may extend the spectrum of effective bacterial compounds, particularly against previously-resistant bacteria (e.g. ESKAPE organisms), and/or gram negative bacteria, without significant side effects. In a preferred embodiment, the present cephem compound may comprise reference compound ceftazidime, which may be used alone, or in combination with one or more β-lactamase inhibitors, such as NXL-104. As shown, the foregoing composition was tested for minimum inhibitory concentration (MIC, μg/mL) against bacteria listed in Tables 2-3.

[2] = tested on: K. pneumoniae 2689; assay: MIC against K. pneumoniae 2689; type: cell-based; settings: K. pneumoniae 2689, KPC-2
Description: (§2) As shown, the foregoing composition was tested for minimum inhibitory concentration (MIC, μg/mL) against bacteria listed in Tables 2-3.

[3] = tested on: C. freundii 2487; assay: MIC against C. freundii 2487; type: cell-based; settings: Table 2, C. freundii 2487, Caz R, IMP S
Text: as §1

[4] = tested on: S. pneumoniae 2406; assay: MIC against S. pneumoniae 2406; type: cell-based; settings: Table 2, S. pneumoniae 2406, Pen S
Text: as §1

[5] = tested on: C. freundii 15; assay: MIC against C. freundii 15; type: cell-based; settings: Table 2, C. freundii 15, Caz R, IMP S
Text: as §1

[6] = tested on: E. cloacae 566; assay: MIC against E. cloacae 566; type: cell-based; settings: Table 2, E. cloacae 566, Caz R, IMP S
Text: as §1

[7] = tested on: K. pneumoniae 4106; assay: MIC against K. pneumoniae 4106; type: cell-based; settings: K. pneumoniae 4106, KPC-3, TEM-1, SHV-12, SHV-141
Description: as §2

[8] = tested on: E. cloacae 2704; assay: MIC against E. cloacae 2704; type: cell-based; settings: Table 2, E. cloacae 2704, P99
Text: as §1

[9] = tested on: K. pneumoniae 2697; assay: MIC against K. pneumoniae 2697; type: cell-based; settings: Table 2, K. pneumoniae 2697, IMP-4
Text: as §1

[10] = tested on: E. cloacae 2044; assay: MIC against E. cloacae 2044; type: cell-based; settings: Table 2, E. cloacae 2044, Caz S, IMP S
Text: as §1

[11] = tested on: S. aureus 3147; assay: MIC against S. aureus 3147; type: cell-based; settings: Table 2, S. aureus 3147, MSSA
Text: as §1

[12] = tested on: E. coli 4102; assay: MIC against E. coli 4102; type: cell-based; settings: Table 2, E. coli 4102, CTX-M-14
Text: as §1

[13] = tested on: K. pneumoniae 2711; assay: MIC against K. pneumoniae 2711; type: cell-based; settings: Table 3, K. pneumoniae 2711, KPC-3, VIM-1
Description: as §2

[14] = tested on: C. freundii 579; assay: MIC against C. freundii 579; type: cell-based; settings: Table 2, C. freundii 579, Caz R, IMP S
Text: as §1

[15] = tested on: S. pneumoniae ATCC 700673; assay: MIC against S. pneumoniae ATCC 700673; type: cell-based; settings: Table 2, S. pneumoniae ATCC 700673, Pen R
Text: as §1

[16] = tested on: K. pneumoniae 2690; assay: MIC against K. pneumoniae 2690; type: cell-based; settings: Table 3, K. pneumoniae 2690, KPC-2
Description: as §2

[17] = tested on: S. pneumoniae 2403; assay: MIC against S. pneumoniae 2403; type: cell-based; settings: Table 2, S. pneumoniae 2403, Pen S
Text: as §1

[18] = tested on: E. cloacae 2710; assay: MIC against E. cloacae 2710; type: cell-based; settings: Table 3, E. cloacae 2710, KPC-3, VIM-1
Description: as §2

[19] = tested on: E. cloacae 2689; assay: MIC against E. cloacae 2689; type: cell-based; settings: Table 3, E. cloacae 2689, KPC-2
Description: as §2

[20] = tested on: K. pneumoniae 4107; assay: MIC against K. pneumoniae 4107; type: cell-based; settings: K. pneumoniae 4107, KPC-2, TEM-1, SHV-11
Description: as §2

[21] = tested on: E. cloacae 2705; assay: MIC against E. cloacae 2705; type: cell-based; settings: Table 3, E. cloacae 2705, VIM-1, KPC-3type
Description: as §2

[22] = tested on: S. pneumoniae 2405; assay: MIC against S. pneumoniae 2405; type: cell-based; settings: Table 2, S. pneumoniae 2405, Pen S
Text: as §1

[23] = tested on: S. aureus3137; assay: MIC against S. aureus3137; type: cell-based, S. aureus; settings: Table 2, S. aureus3137, MSSA
Text: as §1

[24] = Escherichia coli, alone, read-out: MIC
[25] = Klebsiella pneumoniae, 2689, Table 2, alone, read-out: MIC
[26] = Klebsiella pneumoniae, 2689, Table 3, alone, read-out: MIC
[27] = Citrobacter freundii, alone, read-out: MIC
[28] = Streptococcus pneumoniae, alone, read-out: MIC
[29] = Enterobacter cloacae, alone, read-out: MIC
[30] = Klebsiella pneumoniae, 4106, Table 2, alone, read-out: MIC
[31] = Klebsiella pneumoniae, 4106, Table 3, alone, read-out: MIC
[32] = Klebsiella pneumoniae, alone, read-out: MIC
[33] = Staphylococcus aureus, alone, read-out: MIC
[34] = Streptococcus pneumoniae, ATCC700673, alone, read-out: MIC
[35] = Klebsiella pneumoniae, 4107, Table 2, alone, read-out: MIC
[36] = Klebsiella pneumoniae, 4107, Table 3, alone, read-out: MIC
[37] = Table 2, in combination with NXL-104
[38] = Table 3, in combination with NXL-104

CC(C)(O/N=C(\C(=O)N[C@@H]1C(=O)N2C(C(=O)[O-])=C(C[n+]3ccc4c(ccn4Cc4ccc(C(=N)N)cc4)c3)CS[C@H]12)c1csc(N)n1)C(=O)O [Ex-1, (6R,7R)-7-{[(2Z)-2-(2-Amino-1,3-thiazol-4-yl)-2-{[(2-carboxypropan-2-yl)oxy]imino}acetyl]-amino}-3-{[1-(4-carbamimidoylbenzyl)-1H-pyrrolo[3,2-c]pyridin-5-ium-5-yl]methyl}-8-oxo-5-thia-1-azabicyclo[4.2.0]oct-2-ene-2-carboxylate]
MIC [1, 24]: 4 µg/mL
MIC [2, 25]: 8 µg/mL (≈ 11.1 µM)
MIC [2, 26]: 16 µg/mL (≈ 22.3 µM)
MIC [3, 27]: 32 µg/mL
MIC [4, 28]: ≤ 0.06 µg/mL
MIC [5, 27]: 16 µg/mL
MIC [6, 29]: 4 µg/mL
MIC [7, 30]: 8 µg/mL (≈ 11.1 µM)
MIC [7, 31]: 32 µg/mL (≈ 44.6 µM)
MIC [8, 29]: 16 µg/mL
MIC [9, 32]: 4 µg/mL
MIC [10, 29]: 0.25 µg/mL
MIC [11, 33]: 2 µg/mL
MIC [12, 24]: 1 µg/mL
MIC [13, 32]: 4 µg/mL (≈ 5.57 µM)
MIC [14, 27]: 4 µg/mL
MIC [15, 34]: 2 µg/mL
MIC [16, 32]: 32 µg/mL (≈ 44.6 µM)
MIC [17, 28]: ≤ 0.06 µg/mL
MIC [18, 29]: > 32 µg/mL
MIC [19, 29]: 32 µg/mL (≈ 44.6 µM)
MIC [20, 35]: 16 µg/mL (≈ 22.3 µM)
MIC [20, 36]: 32 µg/mL (≈ 44.6 µM)
MIC [21, 29]: > 32 µg/mL
MIC [22, 28]: ≤ 0.06 µg/mL
MIC [23, 33]: 8 µg/mL

CC(C)(O/N=C(\C(=O)N[C@@H]1C(=O)N2C(C(=O)[O-])=C(C[n+]3ccc4n3CCN4Cc3ccc(C(=N)N)cc3)CS[C@H]12)c1csc(N)n1)C(=O)O [Example 2, (6R,7R)-7-{[(2Z)-2-(2-Amino-1,3-thiazol-4-yl)-2-{[(2-carboxypropan-2-yl)oxy]imino}acetyl]amino}-3-{[1-(4-carbamimidoylbenzyl)-2,3-dihydro-1H-imidazo[1,2-b]pyrazol-5-ium-5-yl]methyl}-8-oxo-5-thia-1-azabicyclo[4.2.0]oct-2-ene-2-carboxylate]
MIC [1, 24]: 8 µg/mL
MIC ([1]; in combination with NXL-104): 1.00 µg/mL
MIC [2, 25]: 8 µg/mL (≈ 11.3 µM)
MIC [2, 26]: 32 µg/mL (≈ 45.1 µM)
MIC [2, 37]: 2.00 µg/mL
MIC [2, 38]: 2 µg/mL
MIC [3, 27]: 8 µg/mL
MIC ([3]; in combination with NXL-104): 1.00 µg/mL
MIC [4, 28]: ≤ 0.06 µg/mL
MIC ([4]; in combination with NXL-104): ≤0.06 µg/mL
MIC [5, 27]: 4 µg/mL
MIC ([5]; in combination with NXL-104): 0.50 µg/mL
MIC [6, 29]: 0.5 µg/mL
MIC ([6]; in combination with NXL-104): 0.25 µg/mL
MIC [7, 30]: 8 µg/mL (≈ 11.3 µM)
MIC [7, 31]: > 32 µg/mL
MIC [7, 37]: 2.00 µg/mL
MIC [7, 38]: 4 µg/mL
MIC [8, 29]: 4 µg/mL
MIC ([8]; in combination with NXL-104): 1.00 µg/mL
MIC [9, 32]: 4 µg/mL
MIC ([9]; in combination with NXL-104): 1.00 µg/mL
MIC [10, 29]: 0.25 µg/mL
MIC ([10]; in combination with NXL-104): 0.12 µg/mL
MIC [11, 33]: 2 µg/mL
MIC ([11]; in combination with NXL-104): 2.00 µg/mL
MIC [12, 24]: 1 µg/mL
MIC ([12]; in combination with NXL-104): 0.12 µg/mL
MIC [13, 32]: 4 µg/mL (≈ 5.64 µM)
MIC ([13]; in combination with NXL-104): 0.5 µg/mL
MIC [14, 27]: 2 µg/mL
MIC ([14]; in combination with NXL-104): 0.50 µg/mL
MIC [15, 34]: 8 µg/mL
MIC ([15]; in combination with NXL-104): 8.00 µg/mL
MIC [16, 32]: 32 µg/mL (≈ 45.1 µM)
MIC ([16]; in combination with NXL-104): 2 µg/mL
MIC [17, 28]: ≤ 0.06 µg/mL
MIC ([17]; in combination with NXL-104): ≤0.06 µg/mL
MIC [18, 29]: > 32 µg/mL
MIC ([18]; in combination with NXL-104): >32 µg/mL
MIC [19, 29]: 8 µg/mL (≈ 11.3 µM)
MIC ([19]; in combination with NXL-104): 0.5 µg/mL
MIC [20, 35]: 16 µg/mL (≈ 22.6 µM)
MIC [20, 36]: > 32 µg/mL
MIC [20, 37]: 4.00 µg/mL
MIC [20, 38]: 2 µg/mL
MIC [21, 29]: > 32 µg/mL
MIC ([21]; in combination with NXL-104): >32 µg/mL
MIC [22, 28]: 0.12 µg/mL
MIC ([22]; in combination with NXL-104): ≤0.06 µg/mL
MIC [23, 33]: 32 µg/mL
MIC ([23]; in combination with NXL-104): 32.00 µg/mL
